# Reference: patent publication US8959984B2, “Proteome-wide quantification of small molecule binding to cellular target proteins” (priority 2007, dated 2015)
# Where two headings read alike, the source gives them in different places.
# Tests used:
# [1] = target: SNRPG (Homo sapiens, UniProt P62308); test: binding to AX14596 beads (HeLa lysate, SILAC MS); set-up: endogenous in cells; host or cells: HeLa S3
# Description: (§1) Differentially SILAC-encoded cell lysates were either incubated with the inhibitor beads displaying immobilized AX14596 or control resin devoid of ligand. In parallel, the supernatant from the first binding step was subjected to a second incubation with the AX14596 resin (FIG. 4). The resulting three elution fractions were combined, resolved by gel electrophoresis, proteolytically digested and the relative abundance of the retained proteins quantified. Proteins showing considerable binding to the control resin were identified as non-specific interactors and therefore not considered further. […] These target-specific ratios were similar in “label switch” experiments (FIGS. 6a and 6c). The binding equilibrium was determined in parallel control SILAC experiments as well as the excess of the immobilized compound over its cellular targets, the excess preferably being a molar excess (FIG. 7 and FIG. 8).
# (§2) Cysteine carbamidomethylation was set as a fixed modification and N-acetyl protein and oxidized methionine were allowed as variable modifications. Spectra that were determined to result from heavy labeled peptides in the pre-search detection of SILAC partners by MaxQuant were searched with the fixed modifications Lys^4, Lys^8, Arg^6 and Arg^10, whereas MS/MS spectra for which no SILAC state could be assigned before database searching were searched with Lys^4, Lys^8, Arg^6 and Arg^10 as variable modifications. The mass tolerance was set to 5 ppm for monoisotopic precursor ions and to 0.5 Da for MS/MS peaks. The minimum peptide length was set to 6 amino acids and up to three missed cleavages and three isotopically labeled amino acids were permitted per peptide. The accepted false discovery rate (FDR) was 1% for the proteins and peptides. The cut-off for the posterior error probability (PEP) of peptides was set to 10%. Peptide PEPs were determined by generating Mascot score and peptide-length-dependent histograms for both the forward and the reverse hits and then deriving the probability of a false identification for a given top-scoring peptide using Bayes' theorem. The PEPs of peptides belonging to the same proteins were then multiplied. Each peptide sequence was considered only once with the lowest PEP determined in case of multiple sequencing of the same isotopic pattern or of peptide species with different SILAC, charge or modification states. Proteins were then sorted according to their products of their peptide PEPs and included until a FDR of 1% was reached according to the fraction of reverse proteins contained in the protein list. In addition to the FDR threshold applied for protein identification, proteins were only included when they were identified with at least two peptides (of which one was required to be unique for the protein) and quantified if at least on quantifiable SILAC pair was associated with them. Outliers were not removed as protein ratios were calculated as the median instead of the average of all peptide ratios. For peptides shared among different identified proteins, SILAC ratios were only considered for the ratio of the protein identified with the highest number of unique peptides. Protein ratios for the different in vitro association experiments were corrected for the initial SILAC pooling ratio, which was determined from the median of protein ratios in pooled SILAC-encoded cell extracts.
# [2] = target: CK1e (CSNK1E) (Homo sapiens, UniProt P49674); test: binding to AX14596 beads (HeLa lysate, SILAC MS); set-up: endogenous in cells; host or cells: HeLa S3
# Description: as §1, §2
# [3] = target: JAK1 (Homo sapiens, UniProt P23458); test: binding to immobilized V16742 (IVA1/IVA2, HeLa lysate, MS)
# [4] = target: Erk1 (Homo sapiens, UniProt P27361); test: as above
# [5] = target: T1, TLK2 (Homo sapiens, UniProt Q86UE8); test: as above
# T1 construct: endogenous in cells; host or cells: HeLa S3
# [6] = target: RIPK2 (Homo sapiens, UniProt O43353); test: as above
# [7] = target: T2, DYRK1A (IPI00219250) (Homo sapiens, UniProt Q13627); test: binding to VI16742 beads (HeLa lysate, SILAC MS)
# T2 construct: endogenous in cells; host or cells: HeLa S3 cell lysate
# [8] = target: ERK2 (Homo sapiens, UniProt P28482); test: binding to immobilized V16742 (IVA1/IVA2, HeLa lysate, MS); conditions: for Percent bound at 1.87 μM 16742 conc / Percent bound at 8.74 μM 16742 conc / Percent bound at 52 μM 16742 conc / Kd: Erk2
# [9] = target: BRD4 (Homo sapiens, UniProt O60885); test: as above
# [10] = target: JNK2 (Homo sapiens, UniProt P45984); test: as above
# [11] = target: BRD3 (Homo sapiens, UniProt Q15059); test: as above
# [12] = target: MNK1 (MKNK1) (Homo sapiens, UniProt Q9BUB5)
# [13] = immobilized V16742, read-out: Kd
# Chain of ERK2 (P28482 whole entry): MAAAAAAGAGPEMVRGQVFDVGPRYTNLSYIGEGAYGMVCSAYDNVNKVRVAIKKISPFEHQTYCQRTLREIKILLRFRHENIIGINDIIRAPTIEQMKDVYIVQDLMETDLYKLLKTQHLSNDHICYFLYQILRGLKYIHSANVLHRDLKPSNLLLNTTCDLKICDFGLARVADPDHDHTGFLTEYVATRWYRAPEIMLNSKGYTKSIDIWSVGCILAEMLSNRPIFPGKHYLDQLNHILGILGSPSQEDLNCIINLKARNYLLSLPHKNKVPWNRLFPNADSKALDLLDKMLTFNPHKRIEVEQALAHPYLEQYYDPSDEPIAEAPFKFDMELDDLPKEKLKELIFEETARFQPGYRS
# Chain of Erk1 (P27361 whole entry): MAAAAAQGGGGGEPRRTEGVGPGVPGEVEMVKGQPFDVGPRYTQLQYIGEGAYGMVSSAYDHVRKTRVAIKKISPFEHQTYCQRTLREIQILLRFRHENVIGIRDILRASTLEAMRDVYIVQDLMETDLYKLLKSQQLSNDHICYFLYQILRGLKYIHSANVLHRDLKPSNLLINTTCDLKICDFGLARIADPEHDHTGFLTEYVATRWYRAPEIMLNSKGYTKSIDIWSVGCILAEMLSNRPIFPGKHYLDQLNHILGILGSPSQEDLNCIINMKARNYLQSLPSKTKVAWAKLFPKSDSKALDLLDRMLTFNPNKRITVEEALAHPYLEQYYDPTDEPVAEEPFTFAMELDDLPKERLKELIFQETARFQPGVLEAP
# Chain of BRD3 (Q15059 whole entry): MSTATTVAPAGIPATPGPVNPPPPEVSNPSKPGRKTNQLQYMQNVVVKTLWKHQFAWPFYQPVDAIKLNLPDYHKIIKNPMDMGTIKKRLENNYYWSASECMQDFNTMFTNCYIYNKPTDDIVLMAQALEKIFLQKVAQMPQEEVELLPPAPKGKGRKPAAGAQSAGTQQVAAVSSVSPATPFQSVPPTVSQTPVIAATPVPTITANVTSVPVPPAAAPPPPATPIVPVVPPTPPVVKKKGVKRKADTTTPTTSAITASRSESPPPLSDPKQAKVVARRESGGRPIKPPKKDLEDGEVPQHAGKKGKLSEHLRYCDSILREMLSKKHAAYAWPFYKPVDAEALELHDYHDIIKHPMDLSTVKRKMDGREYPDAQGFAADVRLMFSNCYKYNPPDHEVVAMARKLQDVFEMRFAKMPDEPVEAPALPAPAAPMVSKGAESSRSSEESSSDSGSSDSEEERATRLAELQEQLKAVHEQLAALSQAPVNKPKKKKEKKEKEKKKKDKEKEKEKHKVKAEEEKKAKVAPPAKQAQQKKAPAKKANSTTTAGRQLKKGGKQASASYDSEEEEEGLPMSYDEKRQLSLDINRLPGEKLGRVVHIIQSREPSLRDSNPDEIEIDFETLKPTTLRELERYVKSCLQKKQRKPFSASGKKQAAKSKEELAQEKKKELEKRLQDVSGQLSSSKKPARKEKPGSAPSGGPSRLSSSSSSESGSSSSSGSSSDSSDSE
# T1 sequence (Q86UE8 whole entry): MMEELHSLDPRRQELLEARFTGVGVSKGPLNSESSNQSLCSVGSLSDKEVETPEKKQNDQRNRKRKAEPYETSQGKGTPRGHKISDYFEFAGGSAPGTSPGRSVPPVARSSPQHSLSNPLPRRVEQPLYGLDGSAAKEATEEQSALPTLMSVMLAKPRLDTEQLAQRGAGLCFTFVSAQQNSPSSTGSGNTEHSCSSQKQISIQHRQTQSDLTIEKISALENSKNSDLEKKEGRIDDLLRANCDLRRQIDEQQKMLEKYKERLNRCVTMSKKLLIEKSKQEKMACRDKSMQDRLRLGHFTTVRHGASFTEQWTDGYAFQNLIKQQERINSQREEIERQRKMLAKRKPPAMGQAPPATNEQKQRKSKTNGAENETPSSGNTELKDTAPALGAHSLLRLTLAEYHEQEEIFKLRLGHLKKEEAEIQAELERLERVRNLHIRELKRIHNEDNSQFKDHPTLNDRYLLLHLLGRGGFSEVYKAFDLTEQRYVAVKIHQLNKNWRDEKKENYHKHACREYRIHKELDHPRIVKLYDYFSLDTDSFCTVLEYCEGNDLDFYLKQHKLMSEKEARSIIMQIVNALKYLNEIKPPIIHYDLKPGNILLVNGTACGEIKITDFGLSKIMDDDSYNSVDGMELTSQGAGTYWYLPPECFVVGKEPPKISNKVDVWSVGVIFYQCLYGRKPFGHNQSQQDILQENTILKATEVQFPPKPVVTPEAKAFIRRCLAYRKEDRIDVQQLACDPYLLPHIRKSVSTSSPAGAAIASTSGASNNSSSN
# Chain of JAK1 (P23458 whole entry): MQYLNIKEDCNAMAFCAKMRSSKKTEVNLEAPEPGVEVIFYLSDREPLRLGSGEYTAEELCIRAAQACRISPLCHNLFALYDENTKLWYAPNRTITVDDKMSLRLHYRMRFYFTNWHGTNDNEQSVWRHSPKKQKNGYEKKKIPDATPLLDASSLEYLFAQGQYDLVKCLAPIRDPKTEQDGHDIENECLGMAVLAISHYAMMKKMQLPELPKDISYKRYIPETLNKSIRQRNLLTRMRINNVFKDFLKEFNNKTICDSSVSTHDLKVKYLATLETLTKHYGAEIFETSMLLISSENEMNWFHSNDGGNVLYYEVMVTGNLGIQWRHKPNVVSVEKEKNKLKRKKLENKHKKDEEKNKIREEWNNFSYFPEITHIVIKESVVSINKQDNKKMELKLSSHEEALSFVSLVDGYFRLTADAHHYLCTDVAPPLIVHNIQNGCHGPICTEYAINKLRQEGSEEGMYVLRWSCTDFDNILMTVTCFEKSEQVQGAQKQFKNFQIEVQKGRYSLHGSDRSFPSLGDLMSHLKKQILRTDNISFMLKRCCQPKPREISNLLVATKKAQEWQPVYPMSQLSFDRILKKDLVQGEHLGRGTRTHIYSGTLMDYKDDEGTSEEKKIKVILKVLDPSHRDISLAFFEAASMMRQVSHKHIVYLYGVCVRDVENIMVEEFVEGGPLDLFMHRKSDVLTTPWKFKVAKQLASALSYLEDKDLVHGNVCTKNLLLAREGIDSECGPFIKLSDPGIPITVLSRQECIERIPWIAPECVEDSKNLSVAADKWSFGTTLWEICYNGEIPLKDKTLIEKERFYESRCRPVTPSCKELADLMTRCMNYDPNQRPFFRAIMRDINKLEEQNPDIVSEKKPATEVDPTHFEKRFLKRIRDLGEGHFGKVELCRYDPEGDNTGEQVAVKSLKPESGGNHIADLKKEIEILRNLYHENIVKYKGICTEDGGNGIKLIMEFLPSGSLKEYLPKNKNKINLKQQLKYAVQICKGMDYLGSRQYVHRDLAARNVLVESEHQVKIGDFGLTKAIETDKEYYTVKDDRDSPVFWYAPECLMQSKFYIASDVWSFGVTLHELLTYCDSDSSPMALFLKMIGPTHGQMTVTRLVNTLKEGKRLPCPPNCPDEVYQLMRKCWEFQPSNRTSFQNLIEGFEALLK
# Chain of MNK1 (MKNK1) (Q9BUB5 whole entry): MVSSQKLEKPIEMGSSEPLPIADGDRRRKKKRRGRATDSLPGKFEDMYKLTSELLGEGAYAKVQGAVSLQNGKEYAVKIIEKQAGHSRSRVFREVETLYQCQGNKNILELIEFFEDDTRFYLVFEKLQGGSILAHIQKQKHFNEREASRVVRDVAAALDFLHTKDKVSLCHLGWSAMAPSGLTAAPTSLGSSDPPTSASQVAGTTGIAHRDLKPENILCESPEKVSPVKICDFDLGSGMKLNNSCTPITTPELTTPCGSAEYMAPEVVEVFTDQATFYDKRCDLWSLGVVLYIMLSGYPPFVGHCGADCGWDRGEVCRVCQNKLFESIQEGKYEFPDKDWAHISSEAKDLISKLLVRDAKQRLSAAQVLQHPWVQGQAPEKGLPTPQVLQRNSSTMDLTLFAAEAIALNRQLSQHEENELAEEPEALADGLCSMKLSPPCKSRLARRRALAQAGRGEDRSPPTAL
# Chain of JNK2 (P45984 whole entry): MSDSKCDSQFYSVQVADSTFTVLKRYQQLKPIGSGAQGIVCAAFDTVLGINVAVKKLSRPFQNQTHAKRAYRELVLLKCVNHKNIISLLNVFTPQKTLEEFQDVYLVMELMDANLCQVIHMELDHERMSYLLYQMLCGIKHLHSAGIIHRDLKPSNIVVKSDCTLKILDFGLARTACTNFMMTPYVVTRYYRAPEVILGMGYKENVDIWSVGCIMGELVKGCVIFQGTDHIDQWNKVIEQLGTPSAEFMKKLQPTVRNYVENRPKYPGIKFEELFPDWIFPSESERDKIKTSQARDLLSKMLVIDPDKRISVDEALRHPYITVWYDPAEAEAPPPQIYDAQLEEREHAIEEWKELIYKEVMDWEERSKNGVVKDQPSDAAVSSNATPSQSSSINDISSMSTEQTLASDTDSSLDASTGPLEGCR
# Chain of CK1e (CSNK1E) (P49674 whole entry): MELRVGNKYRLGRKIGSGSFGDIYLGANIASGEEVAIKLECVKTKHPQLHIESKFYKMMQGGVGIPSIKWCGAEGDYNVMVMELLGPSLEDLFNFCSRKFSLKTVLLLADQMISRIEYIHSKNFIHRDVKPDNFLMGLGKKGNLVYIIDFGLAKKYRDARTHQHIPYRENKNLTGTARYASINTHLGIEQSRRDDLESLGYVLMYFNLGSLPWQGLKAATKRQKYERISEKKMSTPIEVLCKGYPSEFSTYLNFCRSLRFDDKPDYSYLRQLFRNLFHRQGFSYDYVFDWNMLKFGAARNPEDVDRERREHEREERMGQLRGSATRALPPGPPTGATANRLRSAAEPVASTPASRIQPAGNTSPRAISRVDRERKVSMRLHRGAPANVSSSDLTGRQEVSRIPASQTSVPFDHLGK
# Chain of SNRPG (P62306 whole entry): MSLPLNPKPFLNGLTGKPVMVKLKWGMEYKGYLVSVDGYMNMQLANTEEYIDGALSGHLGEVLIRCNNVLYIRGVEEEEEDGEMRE
# Chain of SNRPG (P62304 whole entry, further chain): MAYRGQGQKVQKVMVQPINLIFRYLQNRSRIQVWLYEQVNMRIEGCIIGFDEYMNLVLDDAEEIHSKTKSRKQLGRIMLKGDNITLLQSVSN
# Chain of SNRPG (P62308 whole entry): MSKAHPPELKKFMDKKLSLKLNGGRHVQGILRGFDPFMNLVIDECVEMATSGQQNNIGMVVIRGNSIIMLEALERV
structure (smiles),measurement,setting,value
COc1cc2ncnc(Nc3ccc(F)c(Cl)c3)c2cc1OCCCN [AX14596],Ki,[1],87.6 µM
same,r (3 mg/1 mg lysate),[1],2.54
same,rAVERAGE (2. inc/1. inc),[1],0.47
same,rAVERAGE (control/1. inc),[1],0.16
same,Ki,[2],4080 µM
same,r (3 mg/1 mg lysate),[2],2.87
same,r (5 h/2.5 h inc. time),[2],1.23
same,rAVERAGE (2. inc/1. inc),[2],0.98
same,rAVERAGE (control/1. inc),[2],0.09
CC(C)n1c(=O)ccc2cnc(Nc3ccc(OCCN)cc3)nc21 [V16742],Kd,[3]; [13],11.1 µM
same,Kd,[4],57.8 µM
same,Percent bound at various 16742 conc,"[4]; Erk1, Experiment 1, 1.87 μM 16742",1.06%
same,Percent bound at various 16742 conc,"[4]; Erk1, Experiment 1, 8.74 μM 16742",2.41%
same,Percent bound at various 16742 conc,"[4]; Erk1, Experiment 1, 52 μM 16742",52.52%
same,Percent bound at various 16742 conc,"[4]; Erk1, Experiment 2, 1.87 μM 16742",0.91%
same,Percent bound at various 16742 conc,"[4]; Erk1, Experiment 2, 8.74 μM 16742",2.38%
same,Percent bound at various 16742 conc,"[4]; Erk1, Experiment 2, 52 μM 16742",45.83%
same,Kd,"[4]; Kd Avg, Erk1, average of two experiments",64.4 µM
same,Kd,"[4]; Kd, Erk1, Experiment 2",71.1 µM
same,Kd,"[4]; Kd, Erk1, immobilized V16742",64.4 µM
same,Percent bound at various 16742 conc,"[5]; Experiment 1, 1.87 μM 16742",2.49%
same,Percent bound at various 16742 conc,"[5]; Experiment 1, 8.74 μM 16742",3.89%
same,Percent bound at various 16742 conc,"[5]; Experiment 1, 52 μM 16742",58.72%
same,Kd,"[5]; Experiment 1, read-out: Kd",47.3 µM
same,Percent bound at various 16742 conc,"[5]; Experiment 2, 1.87 μM 16742",1.24%
same,Percent bound at various 16742 conc,"[5]; Experiment 2, 8.74 μM 16742",3.73%
same,Percent bound at various 16742 conc,"[5]; Experiment 2, 52 μM 16742",41.78%
same,Kd,"[5]; Experiment 2, read-out: Kd",80 µM
same,Kd,"[5]; average of two experiments, read-out: Kd Avg",63.7 µM
same,affinity class of target for V16742,[6],Moderate affinity target
same,rAVERAGE (CTRL/1 INC),[7]; control beads vs first incubation,0.08
same,Ki,[7]; immobilized VI16742,83.8 µM
same,rAVERAGE (2 INC/1 INC),[7]; second vs first incubation,0.62
same,affinity class of target for V16742,[8]; ERK2,Low affinity target
same,Kd,[9]; [13],32 µM
same,affinity class of target for V16742,[10],High affinity target
CC(C)n1c(=O)ccc2cnc(Nc3ccc(OCCN)cc3)nc21 [compound 16742],Percent bound at 1.87 μM 16742 conc,[3]; EXPERIMENT 1,16.10%
same,Percent bound at 8.74 μM 16742 conc,[3]; EXPERIMENT 1,75.89%
same,Percent bound at 52 μM 16742 conc,[3]; EXPERIMENT 1,90.34%
same,Kd,"[3]; EXPERIMENT 1, read-out: Kd",4.76 µM
same,Percent bound at 1.87 μM 16742 conc,[3]; EXPERIMENT 2,8.59%
same,Percent bound at 8.74 μM 16742 conc,[3]; EXPERIMENT 2,30.74%
same,Percent bound at 52 μM 16742 conc,[3]; EXPERIMENT 2,78.69%
same,Kd,"[3]; EXPERIMENT 2, read-out: Kd",17.4 µM
same,Kd,[3]; read-out: Kd Avg,11.1 µM
same,Percent bound at 1.87 μM 16742 conc,[6]; EXPERIMENT 1,3.74%
same,Percent bound at 8.74 μM 16742 conc,[6]; EXPERIMENT 1,42.39%
same,Percent bound at 52 μM 16742 conc,[6]; EXPERIMENT 1,91.89%
same,Kd,"[6]; EXPERIMENT 1, read-out: Kd",11.4 µM
same,Percent bound at 1.87 μM 16742 conc,[6]; EXPERIMENT 2,5.20%
same,Percent bound at 8.74 μM 16742 conc,[6]; EXPERIMENT 2,38.79%
same,Percent bound at 52 μM 16742 conc,[6]; EXPERIMENT 2,90.30%
same,Kd,"[6]; EXPERIMENT 2, read-out: Kd",12.4 µM
same,Kd,[6]; read-out: Kd Avg,11.9 µM
same,Percent bound at 1.87 μM 16742 conc,[8]; EXPERIMENT 1,1.41%
same,Percent bound at 8.74 μM 16742 conc,[8]; EXPERIMENT 1,5.40%
same,Percent bound at 52 μM 16742 conc,[8]; EXPERIMENT 1,70.05%
same,Kd,"[8]; EXPERIMENT 1, read-out: Kd",35.1 µM
same,Percent bound at 1.87 μM 16742 conc,[8]; EXPERIMENT 2,2.43%
same,Percent bound at 8.74 μM 16742 conc,[8]; EXPERIMENT 2,5.90%
same,Percent bound at 52 μM 16742 conc,[8]; EXPERIMENT 2,65.58%
same,Kd,"[8]; EXPERIMENT 2, read-out: Kd",38.5 µM
same,Kd,[8]; read-out: Kd Avg,36.8 µM
same,Percent bound at 1.87 μM 16742 conc,[9]; EXPERIMENT 1,0.33%
same,Percent bound at 8.74 μM 16742 conc,[9]; EXPERIMENT 1,6.55%
same,Percent bound at 52 μM 16742 conc,[9]; EXPERIMENT 1,73.70%
same,Percent bound at 52 μM 16742 conc,[9]; EXPERIMENT 2,61.49%
same,Kd,[9]; read-out: Kd Avg,32 µM
same,Percent bound at 1.87 μM 16742 conc,[11]; EXPERIMENT 1,0.00%
same,Percent bound at 8.74 μM 16742 conc,[11]; EXPERIMENT 1,0.00%
same,Percent bound at 52 μM 16742 conc,[11]; EXPERIMENT 1,71.55%
same,Kd,"[11]; EXPERIMENT 1, read-out: Kd",37 µM
same,Percent bound at 1.87 μM 16742 conc,[11]; EXPERIMENT 2,8.24%
same,Percent bound at 8.74 μM 16742 conc,[11]; EXPERIMENT 2,11.86%
same,Percent bound at 52 μM 16742 conc,[11]; EXPERIMENT 2,65.82%
same,Kd,"[11]; EXPERIMENT 2, read-out: Kd",33.9 µM
same,Kd,[11]; read-out: Kd Avg,35.4 µM
same,Percent bound at 1.87 μM 16742 conc,[10]; EXPERIMENT 1,68.10%
same,Percent bound at 8.74 μM 16742 conc,[10]; EXPERIMENT 1,89.45%
same,Percent bound at 52 μM 16742 conc,[10]; EXPERIMENT 1,92.48%
same,Kd,"[10]; EXPERIMENT 1, read-out: Kd",0.91 µM
same,Percent bound at 1.87 μM 16742 conc,[10]; EXPERIMENT 2,57.18%
same,Percent bound at 8.74 μM 16742 conc,[10]; EXPERIMENT 2,75.70%
same,Percent bound at 52 μM 16742 conc,[10]; EXPERIMENT 2,94.94%
same,Kd,"[10]; EXPERIMENT 2, read-out: Kd",1.69 µM
same,Kd,[10]; read-out: Kd Avg,1.3 µM
COc1cc2ncnc(Nc3ccc(F)c(Cl)c3)c2cc1OCCCN1CCOCC1 [gefitinib],rAVERAGE (10 nM/0 nM Gef.),[12],0.76
same,rAVERAGE (100 nM/0 nM Gef.),[12],1.00
same,rAVERAGE (1000 nM/0 nM Gef.),[12],0.73
same,rAVERAGE (10000 nM/0 nM Gef.),[12],0.37
